{
  "source": "patent US20150125915A1",
  "about": "“Method for Producing Lactic Acid” (Kao Corporation, priority 2012, published 2015)",
  "system": "Rhizopus oryzae JCM14625 strain (=NBRC 5384)",
  "assay": "Evaluation of ability to produce lactic acid-1 (production rate of lactic acid)",
  "type": "cell-based",
  "conditions": "0.5% (w/v) surfactant in PDB medium at spore germination; rate in the absence of the surfactant = 100",
  "description": "Specifically, the mycelia of a fungus of the genus Rhizopus were prepared by the method of Production Example 2 using the surfactant and then grown by the method of Production Example 3. 6.0 g of the obtained wet fungus bodies of the genus Rhizopus was inoculated to 40 mL of an inorganic culture medium for lactic acid production evaluation (composition: 8.0% glucose, 0.1% ammonium sulfate, 0.06% potassium dihydrogen phosphate, 0.025% magnesium sulfate heptahydrate, 0.009% zinc sulfate heptahydrate, and 5.0% calcium carbonate; all the concentrations mean % (w/v)) applied to a 200-mL Erlenmeyer flask, and then cultured at 35° C. with stirring at 170 rpm. The supernatant of the culture medium was recovered every 2 hours from 30 minutes after the fungus body inoculation. Glucose and lactic acid were quantified by the procedures described later in Reference Example 1. A relative value of the production rate of lactic acid was determined on the basis of the calculation method described in Reference Example 2.\nGlucose and lactic acid were quantified using an HPLC apparatus LaChrom Elite (manufactured by Hitachi High-Technologies Corp.). The analytical column used was a carbohydrate/organic acid analysis column HPX-87H (7.8 mm I.D.×30 cm, manufactured by Bio-Rad Laboratories, Inc.) connected with a guard column Cation H (4.6 mm I.D.×3.0 cm, manufactured by Bio-Rad Laboratories, Inc.). Elution was performed under conditions involving 10 mM sulfuric acid as an eluent, a flow rate of 0.85 mL/min, and a column temperature of 50° C. Glucose and lactic acid were detected using a differential refractive index detector (RI detector) and a UV detector (detection wavelength: 210 nm), respectively. The standard samples used were glucose (distributor code: 049-31165, manufactured by Wako Pure Chemical Industries Ltd.), and lithium L-lactate (product number: L2250, manufactured by Sigma-Aldrich Inc.). Quantification was performed on the basis of concentration calibration curves prepared using these standard samples.\nThe supernatant sample of each culture medium to be subjected to HPLC analysis was appropriately diluted in advance with 37 mM sulfuric acid and then applied to DISMIC-13cp (0.20 μm cellulose acetate membrane, manufactured by […] Group) or MULTI SCREEN MNHV45 (0.45 μm Durapore membrane, manufactured by EMD Millipore) to remove insoluble matter.\nThe concentration of lactic acid (unit: g of lactic acid/L of medium) in the supernatant sample of each culture medium was measured according to Reference Example 1 and divided by a time (unit: hr) required for change in lactic acid concentration to calculate the production rate of lactic acid per unit time (unit: g of lactic acid/L/hr). In addition, a relative value to the production rate of lactic acid under control conditions in each Production Example was determined.",
  "data": [
    {"substance": "Sorbitan monolaurate", "values": [
      {"measurement": "Production rate of lactic acid (relative value)", "result": 152, "unit": "relative value"}
    ]}
  ]
}
